# Data from PubChem BioAssay (NCI).
#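 GI50 is the concentration that inhibits growth by half. TGI: total growth inhibition.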
# Experiments:
# Test in all cases: growth of human tumour cells (NCI), 384-well format
# [1] = system: 786-0 renal
# [2] = system: A498 renal
# [3] = system: A549 NSCLC
# [4] = system: ACHN renal
# [5] = system: BT-549 breast
# [6] = system: CAKI-1 renal
# [7] = system: CCRF-CEM leukemia
# [8] = system: COLO 205 colon
# [9] = system: DU-145 prostate
# [10] = system: EKVX NSCLC
# [11] = system: HCC-2998 colon
# [12] = system: HCT-116 colon
# [13] = system: HCT-15 colon
# [14] = system: HL-60(TB) leukemia
# [15] = system: HOP-62 NSCLC
# [16] = system: HOP-92 NSCLC
# [17] = system: HS 578T breast
# [18] = system: HT29 colon
# [19] = system: IGROV1 ovarian
# [20] = system: K-562 leukemia
# [21] = system: KM12 colon
# [22] = system: LOX IMVI melanoma
# [23] = system: M14 melanoma
# [24] = system: MALME-3M melanoma
# [25] = system: MCF7 breast
# [26] = system: MDA-MB-231 breast
# [27] = system: MDA-MB-435 melanoma
# [28] = system: MDA-MB-468 breast
# [29] = system: MOLT-4 leukemia
# [30] = system: NCI-H23 lung
# [31] = system: NCI-H322M lung
# [32] = system: NCI-H460 NSCLC
# [33] = system: NCI-H522 lung
# [34] = system: NCI/ADR-RES ovarian
# [35] = system: OVCAR-3 ovarian
# [36] = system: OVCAR-4 ovarian
# [37] = system: OVCAR-5 ovarian
# [38] = system: OVCAR-8 ovarian
# [39] = system: PC-3 prostate
# [40] = system: RPMI-8226 leukemia
# [41] = system: RXF 393 renal
# [42] = system: SF-268 CNS
# [43] = system: SF-295 CNS
# [44] = system: SF-539 CNS
# [45] = system: SK-MEL-2 melanoma
# [46] = system: SK-MEL-28 melanoma
# [47] = system: SK-MEL-5 melanoma
# [48] = system: SK-OV-3 ovarian
# [49] = system: SN12C renal
# [50] = system: SNB-19 CNS
# [51] = system: SNB-75 CNS
# [52] = system: SR leukemia
# [53] = system: SW-620 colon
# [54] = system: T-47D breast
# [55] = system: TK-10 renal
# [56] = system: U251 glioblastoma
# [57] = system: UACC-257 melanoma
# [58] = system: UACC-62 melanoma
structure (smiles),measurement,setting,value
COc1cc(F)ccc1-c1ncnc(Nc2cccc(CS(C)(=N)=O)c2)n1 (centres undefined),GI50,[1],683 nM
same,TGI,[1],3880 nM
same,GI50,[2],448 nM
same,GI50,[3],1610 nM
same,TGI,[3],> 100000 nM
same,GI50,[4],510 nM
same,TGI,[4],> 100000 nM
same,GI50,[5],773 nM
same,TGI,[5],2600 nM
same,GI50,[6],404 nM
same,TGI,[6],> 100000 nM
same,GI50,[7],299 nM
same,TGI,[7],1050 nM
same,GI50,[8],339 nM
same,TGI,[8],1920 nM
same,GI50,[9],402 nM
same,TGI,[9],3750 nM
same,GI50,[10],1280 nM
same,TGI,[10],4280 nM
same,GI50,[11],1000 nM
same,TGI,[11],3770 nM
same,GI50,[12],300 nM
same,TGI,[12],> 100000 nM
same,GI50,[13],462 nM
same,GI50,[14],182 nM
same,TGI,[14],391 nM
same,GI50,[15],330 nM
same,TGI,[15],1500 nM
same,GI50,[16],1700 nM
same,TGI,[16],> 23900 nM
same,GI50,[17],465 nM
same,TGI,[17],1690 nM
same,GI50,[18],1400 nM
same,TGI,[18],4150 nM
same,GI50,[19],919 nM
same,TGI,[19],> 100000 nM
same,GI50,[20],2000 nM
same,TGI,[20],15000 nM
same,GI50,[21],322 nM
same,TGI,[21],2120 nM
same,GI50,[22],312 nM
same,TGI,[22],1660 nM
same,GI50,[23],980 nM
same,TGI,[23],3860 nM
same,GI50,[24],843 nM
same,TGI,[24],2300 nM
same,GI50,[25],408 nM
same,TGI,[25],> 100000 nM
same,GI50,[26],559 nM
same,TGI,[26],2680 nM
same,GI50,[27],1440 nM
same,TGI,[27],> 19700 nM
same,GI50,[28],1120 nM
same,TGI,[28],2470 nM
same,GI50,[29],506 nM
same,TGI,[29],1620 nM
same,GI50,[30],568 nM
same,TGI,[30],2240 nM
same,GI50,[31],384 nM
same,TGI,[31],2610 nM
same,GI50,[32],815 nM
same,TGI,[32],3560 nM
same,GI50,[33],1770 nM
same,TGI,[33],4120 nM
same,GI50,[34],2580 nM
same,TGI,[34],21800 nM
same,GI50,[35],384 nM
same,TGI,[35],1810 nM
same,GI50,[36],1830 nM
same,TGI,[36],6090 nM
same,GI50,[37],316 nM
same,TGI,[37],> 100000 nM
same,GI50,[38],520 nM
same,TGI,[38],2610 nM
same,GI50,[39],795 nM
same,TGI,[39],4960 nM
same,GI50,[40],1700 nM
same,TGI,[40],3080 nM
same,GI50,[41],228 nM
same,TGI,[41],586 nM
same,GI50,[42],331 nM
same,TGI,[42],1410 nM
same,GI50,[43],1210 nM
same,TGI,[43],5070 nM
same,GI50,[44],986 nM
same,TGI,[44],2820 nM
same,GI50,[45],1040 nM
same,TGI,[45],2460 nM
same,GI50,[46],572 nM
same,TGI,[46],2360 nM
same,GI50,[47],455 nM
same,TGI,[47],1840 nM
same,GI50,[48],2550 nM
same,TGI,[48],6680 nM
same,GI50,[49],668 nM
same,TGI,[49],3520 nM
same,GI50,[50],988 nM
same,TGI,[50],> 100000 nM
same,GI50,[51],592 nM
same,TGI,[51],2180 nM
same,GI50,[52],39.5 nM
same,TGI,[52],112 nM
same,GI50,[53],776 nM
same,TGI,[53],4820 nM
same,GI50,[54],3010 nM
same,TGI,[54],> 100000 nM
same,GI50,[55],819 nM
same,TGI,[55],> 100000 nM
same,GI50,[56],872 nM
same,TGI,[56],> 19900 nM
same,GI50,[57],1600 nM
same,TGI,[57],3440 nM
same,GI50,[58],240 nM
same,TGI,[58],1080 nM
